According to patent publication US10912780B2, “Heterocyclic compounds useful as anti-bacterial agents and method for production thereof” (Bugworks Research, Inc., priority 2017, dated 2021):
In brackets after ≈: the same amount, converted by molar mass. Several values for one entry are separate records, joined by “and”; a condition that tells them apart may be missing. Equal values may be shown once.

Tests used:
[1] = system: Acinetobacter baumannii ATCC 19606; assay: Minimum Inhibitory Concentration (MIC) in LB media; assay type: cell-based; conditions: Acinetobacter baumannii, ATCC19606;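 also: twofold compound dilutions from DMSO stocks in LB broth microplates, overnight incubation at 37 °C, growth read by absorbance at 600 nm, with DMSO and sterility controls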
Procedure: Bacterial cultures that are stored as glycerol stocks at −80° C. are sub cultured on LB agar plates to obtain isolated colonies. A single colony of each strain is cultured in LB broth. […] Test compounds are dissolved in dimethyl sulfoxide (DMSO) to a stock concentration of 4 mg/ml. A twofold dilution series of this DMSO stock is prepared in a 96 well V bottom microtitre plate from rows A to H. A 3 μL volume of these dilutions are transferred to a 96-well flat bottom microtitre assay plate. Controls to monitor the effects of DMSO and media sterility are included. Each well is inoculated with 150 μL of the above diluted culture. The plates are incubated at 37° C. overnight in a humidified incubator. The following morning, the plates are read using a Spectrophotometer at 600 nm wavelength.

[2] = system: K. pneumoniae [ATCC13883]; assay: Neutropenic thigh infection model in rat; assay type: in vivo; conditions: for Log 10 CFU/g thigh: individual animals
Procedure: Example 15 was tested in rat thigh infection model following intravenous infusion of compound at doses of 100 mg/kg once, 30 mg/kg once daily over a period of 1 hr to assess its efficacy. This study was performed following all ethical practices as laid down in the guidelines for animal care (Registration number No. 1852/PO/Rc/S/16/CPCSEA). The study was approved by the Institutional Animals Ethics Committee (IAEC) of the test facility. The formulation used was 10% of L-ascorbic acid in fresh MilliQ water (w/v) with pH adjusted to ˜4.0 with 1N NaOH. On Day −4 (4 days prior to the desired date of infection), each rat was dosed with a single intra-peritoneal injection of cyclophosphamide equivalent to 150 mg/kg, and returned to its cage. On Day−1 (a day prior to infection) each rat received a dose equivalent to 100 mg/kg of Cyclophosphamide. This procedure ensured that animals will be neutropenic on day 0. […] The inoculum was serially diluted ten-fold in sterile CSDB broth and 0.05 ml of six dilutions were plated onto CSDA agar plates to determine the viable count (CFU/ml) of inoculum. All animals were divided into different groups as specified in the experimental design for each microorganism. All infections were conducted in a biological safety cabinet, with appropriate personnel protection. […] A gentle shaking/mixing of inoculum between two animals was followed for uniform distribution.
Two hours post infection, animals in groups 4, 5 and 6 were administered intravenously with example 15, as a constant rate infusion (duration of infusion 1 h), under Ketamine 60 mg/kg IP+Xylazine 10 mg/kg IP anesthesia, at a dose volume of 10 ml/kg, at the rate of 0.16 ml/min. The dose levels of Example 15 were 10, 30 and 100 mg/kg. […] The total duration of the study was 10 h.
Animals were sacrificed 10 hr post infection and thigh tissues were harvested to enumerate the bacterial CFU count. Thigh muscles were aseptically excised, weighed, and placed into 1 ml of sterile CSDB broth, and homogenized (Omni Tip (220 V hand held)). Serial ten-fold dilutions of the thigh homogenates were prepared in sterile lactose broth and 0.05 mL of four dilutions for each thigh was plated onto CSDA agar plates. Bacterial colonies were enumerated following overnight incubation at […]. Bacterial densities were estimated as Log 10 CFU/gram thigh. The Mean±SD Log 10 CFU/gram thigh was estimated in each group. Significant differences between group means and control will be analyzed by One way ANOVA, followed by a Dunnett's multiple comparison test, using Graphpad Prism at 95% confidence levels. A P value of <0.05 was considered as significant.

[3] = system: E. cloacae clinical strains; assay: Antibacterial susceptibility studies (MIC50 and MIC90) with clinical strains, CLSI guidelines; assay type: cell-based
[4] = system: K. pneumoniae [ATCC13883]; assay: Neutropenic thigh infection model in rat; assay type: in vivo
[5] = system: Enterococcus faecalis ATCC 29212; assay: Minimum Inhibitory Concentration (MIC) in LB media; assay type: cell-based; conditions: Enterococcus faecalis, ATCC29212, read-out: Minimum Inhibitory Concentration E. faecalis ATCC 29212
How it was run: (§1)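 Broth microdilution in LB using cultures grown to OD600 0.8 to 1; compounds tested as twofold dilutions from a 4 mg/ml DMSO stock. Plates incubated overnight at 37° C., growth read by absorbance at 600 nm to give MIC.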

[6] = system: Pseudomonas aeruginosa ATCC 27853; assay: Minimum Inhibitory Concentration (MIC) in LB media; assay type: cell-based; conditions: Pseudomonas aeruginosa, ATCC27853, read-out: Minimum Inhibitory Concentration P. aeruginosa ATCC 27853
How it was run: as §1

[7] = system: Escherichia coli ATCC 25922; assay: Minimum Inhibitory Concentration (MIC) in LB media; assay type: cell-based; conditions: Escherichia coli, ATCC25922, read-out: Minimum Inhibitory Concentration E. coli ATCC 25922
How it was run: as §1

[8] = system: Staphylococcus aureus ATCC 29213; assay: Minimum Inhibitory Concentration (MIC) in LB media; assay type: cell-based; conditions: Staphylococcus aureus, ATCC29213, read-out: Minimum Inhibitory Concentration S. aureus ATCC 29213
How it was run: as §1

[9] = system: Klebsiella pneumoniae ATCC 13883; assay: Minimum Inhibitory Concentration (MIC) in LB media; assay type: cell-based; conditions: Klebsiella pneumoniae, ATCC13883, read-out: Minimum Inhibitory Concentration K. pneumoniae ATCC 13883
How it was run: as §1

[10] = system: K. pneumoniae clinical strains; assay: Antibacterial susceptibility studies (MIC50 and MIC90) with clinical strains, CLSI guidelines; assay type: cell-based
[11] = 10 mg/kg, i.v., 1 h infusion, neutropenic rat, 10 hr post infection
[12] = 30 mg/kg, i.v., 1 h infusion, neutropenic rat, 10 hr post infection
[13] = Enterobacter cloacae, E. cloacae clinical strains (88 strains)
[14] = 3 mg/kg, i.v., 1 h infusion, neutropenic rat, 10 hr post infection

Cn1c(=O)ccc2ccc(F)c(CCNC[C@H]3CN(c4cnc5c(n4)NC(=O)CO5)C(=O)O3)c21 [Example 15, (S)-6-(5-(((2-(7-fluoro-1-methyl-2-oxo-1,2-dihydroquinolin-8-yl)ethyl)amino)methyl)-2-oxooxazolidin-3-yl)-2H-pyrazino[2,3-b][1,4]oxazin-3(4H)-one]
MIC [1]: 0.06 µg/mL (≈ 0.128 µM)
MEAN ± SD (Log 10 CFU/g thigh) [2, 11]: 2.91 ± 0.24 Log 10 CFU/g thigh
MEAN ± SD (Log 10 CFU/g thigh) [2, 12]: 2.22 ± 0.50 Log 10 CFU/g thigh
Mean Log10CFU/g thigh reduction (wrt 2 h PI control: 4.72 Log10CFU/g thigh) [2, 12]: 2.50 Log10CFU/g thigh
Log 10 CFU/g thigh [2, 11]: 3.18 Log 10 CFU/g thigh and 2.85 Log 10 CFU/g thigh and 2.71 Log 10 CFU/g thigh
Log 10 CFU/g thigh [2, 12]: 1.92 Log 10 CFU/g thigh and 1.94 Log 10 CFU/g thigh and 2.8 Log 10 CFU/g thigh
efficacy with respect to 2 h Post Infection (PI) control (in words) ([2]; rat thigh model, 10 and 30 mg/kg): significant dose dependent efficacy
efficacy versus standard drug (in words) ([2]; rat thigh model, similar dose (10 mg/kg)): comparable to standard drug ciprofloxacin
MIC50 [3, 13]: 0.25 µg/mL (≈ 0.534 µM)
MIC90 [3, 13]: 1 µg/mL (≈ 2.13 µM)
Minimum ([3]; lowest MIC among E. cloacae clinical strains (88 strains), no unit in this line): 0.03
MEAN ± SD (Log 10 CFU/g thigh) [4, 14]: 4.10 ± 0.46 Log 10 CFU/g thigh
Mean Log10CFU/g thigh reduction (wrt 2 h PI control: 4.72 Log10CFU/g thigh) [4, 14]: 0.62 Log10CFU/g thigh
Mean Log10CFU/g thigh reduction (wrt 2 h PI control: 4.72 Log10CFU/g thigh) [4, 11]: 1.81 Log10CFU/g thigh
Log 10 CFU/g thigh ([4]; individual animals, 3 mg/kg, i.v., 1 h infusion, neutropenic rat, 10 hr post infection): 4.1 Log 10 CFU/g thigh and 4.56 Log 10 CFU/g thigh and 3.65 Log 10 CFU/g thigh
efficacy compared to the 2 h PI control (in words) ([4]; rat thigh model, 3 mg/kg): bacteriostatic
MIC [5]: 0.06 µg/mL (≈ 0.128 µM)
MIC [6]: 0.25 µg/mL (≈ 0.534 µM)
MIC [7]: 0.03 µg/mL (≈ 0.064 µM)
MIC [8]: ≤ 0.015 µg/mL
MIC [9]: 0.03 µg/mL (≈ 0.064 µM)
MIC ATCC13883 ([10]; K. pneumoniae reference strain ATCC13883, no unit in this line): 0.03 µg/mL (≈ 0.064 µM)
MIC50 ([10]; Klebsiella pneumoniae): 0.5 µg/mL (≈ 1.07 µM)
MIC90 ([10]; Klebsiella pneumoniae): 1 µg/mL (≈ 2.13 µM)
Minimum ([10]; lowest MIC among K. pneumoniae clinical strains (211 strains; Example 15: 176), no unit in this line): 0.06
